Assay results from patent publication US10392368B2, “Pyrazolo and triazolo bicyclic compounds as JAK kinase inhibitors” (THERAVANCE BIOPHARMA R&D IP, LLC, priority 2017, dated 2019).
Read-outs that look alike come from different tables or passages of the source.

Legend:
[1] = molecular target: T1, JAK1 (Homo sapiens, UniProt P23458); assay: Biochemical JAK1 kinase assay (LanthaScreen); conditions: for Ki: read-out: JAK 1 (pKi) (converted)
T1 construct: GST; purchased Life Technologies
Outline: (§1)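 TR-FRET read-out: terbium anti-pSTAT1 (pTyr701) antibody, 2 nM, with 10 mM EDTA quench, emission ratio 520/495 nm. GST-JAK phosphorylates GFP-STAT1 peptide for 1 h at ambient temperature after 1 h compound pre-incubation. pIC50 from dose-response converted to pKi by Cheng-Prusoff.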

[2] = molecular target: T2, JAK2 (Homo sapiens, UniProt O60674); assay: Biochemical JAK2 kinase assay (LanthaScreen); conditions: for Ki: read-out: JAK 2 (pKi) (converted)
T2 construct: GST; purchased Life Technologies
T2 sequence (O60674 whole entry): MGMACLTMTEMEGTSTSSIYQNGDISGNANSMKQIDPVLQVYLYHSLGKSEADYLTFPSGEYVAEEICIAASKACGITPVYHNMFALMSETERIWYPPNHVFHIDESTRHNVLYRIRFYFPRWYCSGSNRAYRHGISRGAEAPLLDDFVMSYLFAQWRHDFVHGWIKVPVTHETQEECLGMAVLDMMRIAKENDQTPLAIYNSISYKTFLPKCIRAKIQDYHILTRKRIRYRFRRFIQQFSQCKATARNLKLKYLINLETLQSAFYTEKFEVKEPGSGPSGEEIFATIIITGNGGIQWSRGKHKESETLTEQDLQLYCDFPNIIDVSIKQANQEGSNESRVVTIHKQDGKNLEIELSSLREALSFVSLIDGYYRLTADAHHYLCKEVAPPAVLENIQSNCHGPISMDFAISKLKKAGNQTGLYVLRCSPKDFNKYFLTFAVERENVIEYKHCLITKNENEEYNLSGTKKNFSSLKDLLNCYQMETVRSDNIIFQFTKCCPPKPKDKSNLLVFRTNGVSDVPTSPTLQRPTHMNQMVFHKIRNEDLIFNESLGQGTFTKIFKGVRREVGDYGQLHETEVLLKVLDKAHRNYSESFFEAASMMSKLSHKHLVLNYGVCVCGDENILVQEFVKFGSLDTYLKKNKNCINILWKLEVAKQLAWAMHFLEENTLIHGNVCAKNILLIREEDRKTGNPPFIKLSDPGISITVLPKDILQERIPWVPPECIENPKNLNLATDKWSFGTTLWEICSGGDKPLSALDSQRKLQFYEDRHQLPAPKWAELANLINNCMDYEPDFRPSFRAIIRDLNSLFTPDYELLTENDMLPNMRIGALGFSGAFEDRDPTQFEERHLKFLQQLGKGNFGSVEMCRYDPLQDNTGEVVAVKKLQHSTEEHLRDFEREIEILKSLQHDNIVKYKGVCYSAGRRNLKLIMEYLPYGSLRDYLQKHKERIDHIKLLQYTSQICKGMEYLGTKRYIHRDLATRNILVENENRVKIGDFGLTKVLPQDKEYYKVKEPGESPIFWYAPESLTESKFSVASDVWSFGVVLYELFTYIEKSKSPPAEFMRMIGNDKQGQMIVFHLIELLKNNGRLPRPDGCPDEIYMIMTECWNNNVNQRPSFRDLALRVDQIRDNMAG
Outline: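 GST-tagged recombinant JAK2 pre-incubated 1 h at ambient temperature with compound and GFP-STAT1 peptide in HEPES pH 7.5/MgCl2 buffer, then ATP added for a 1 h reaction with 1% DMSO. TR-FRET read after EDTA and Tb-anti-pSTAT1 (pTyr701) addition; IC50 from 4-parameter fit, converted to pKi by Cheng-Prusoff.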

[3] = molecular target: T3, Tyk2 (Homo sapiens, UniProt P29597); assay: Biochemical Tyk2 kinase assay (LanthaScreen); conditions: for Ki: read-out: Tyk 2 (pKi) (converted)
T3 construct: GST; purchased Life Technologies
T3 sequence (P29597 whole entry): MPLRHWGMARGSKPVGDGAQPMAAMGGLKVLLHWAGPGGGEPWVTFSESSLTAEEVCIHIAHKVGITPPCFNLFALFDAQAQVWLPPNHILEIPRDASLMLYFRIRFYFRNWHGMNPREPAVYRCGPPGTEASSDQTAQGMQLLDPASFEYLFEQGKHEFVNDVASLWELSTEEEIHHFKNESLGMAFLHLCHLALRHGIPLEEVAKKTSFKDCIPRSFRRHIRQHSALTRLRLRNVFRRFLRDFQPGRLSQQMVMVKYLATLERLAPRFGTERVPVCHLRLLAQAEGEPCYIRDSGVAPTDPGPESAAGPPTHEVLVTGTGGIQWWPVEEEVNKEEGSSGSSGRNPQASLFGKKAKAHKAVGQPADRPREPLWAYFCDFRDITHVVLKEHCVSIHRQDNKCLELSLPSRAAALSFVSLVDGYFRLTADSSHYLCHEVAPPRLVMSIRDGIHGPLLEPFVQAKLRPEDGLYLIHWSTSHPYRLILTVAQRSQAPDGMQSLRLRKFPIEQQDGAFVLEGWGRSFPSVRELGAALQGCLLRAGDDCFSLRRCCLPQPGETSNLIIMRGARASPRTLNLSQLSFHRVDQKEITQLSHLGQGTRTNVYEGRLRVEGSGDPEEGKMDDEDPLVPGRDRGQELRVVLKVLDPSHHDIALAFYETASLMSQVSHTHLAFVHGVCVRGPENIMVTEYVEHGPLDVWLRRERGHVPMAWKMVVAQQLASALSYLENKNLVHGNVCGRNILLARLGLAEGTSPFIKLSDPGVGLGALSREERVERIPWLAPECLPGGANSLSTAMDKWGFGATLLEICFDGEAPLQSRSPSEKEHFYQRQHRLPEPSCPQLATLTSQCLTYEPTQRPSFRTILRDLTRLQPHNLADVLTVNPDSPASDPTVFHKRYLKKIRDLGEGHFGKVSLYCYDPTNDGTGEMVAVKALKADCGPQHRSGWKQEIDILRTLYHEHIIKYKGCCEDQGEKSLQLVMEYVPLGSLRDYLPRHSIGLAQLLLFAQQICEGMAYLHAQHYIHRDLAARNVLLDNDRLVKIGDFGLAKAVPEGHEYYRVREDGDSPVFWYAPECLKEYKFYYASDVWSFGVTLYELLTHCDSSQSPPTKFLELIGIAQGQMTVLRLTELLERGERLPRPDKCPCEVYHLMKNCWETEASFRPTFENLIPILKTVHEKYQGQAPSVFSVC
Outline: as §1

[4] = test system: IL-2 stimulated pSTAT5 in Tall-1 T cells; assay: Cellular JAK3 potency assay: inhibition of IL-2 stimulated pSTAT5 in Tall-1 T cells; format: cell-based, human; conditions: for IC50: Homo sapiens, read-out: Tall-1 (pIC50) (converted)
Outline: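 In human Tall-1 T cells, IL-2 (300 ng/ml final, 30 min) drives STAT5 phosphorylation after a 1 h compound pretreatment. Lysates are assayed for pSTAT5 by AlphaLisa, and IC50 derived from signal versus concentration is expressed as pIC50.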

[5] = molecular target: T4, JAK3 (Homo sapiens, UniProt P52333); assay: Biochemical JAK3 kinase assay (LanthaScreen); design: GST; purchased Life Technologies; conditions: for Ki: read-out: JAK 3 (pKi) (converted)
T4 sequence (P52333 1-1124): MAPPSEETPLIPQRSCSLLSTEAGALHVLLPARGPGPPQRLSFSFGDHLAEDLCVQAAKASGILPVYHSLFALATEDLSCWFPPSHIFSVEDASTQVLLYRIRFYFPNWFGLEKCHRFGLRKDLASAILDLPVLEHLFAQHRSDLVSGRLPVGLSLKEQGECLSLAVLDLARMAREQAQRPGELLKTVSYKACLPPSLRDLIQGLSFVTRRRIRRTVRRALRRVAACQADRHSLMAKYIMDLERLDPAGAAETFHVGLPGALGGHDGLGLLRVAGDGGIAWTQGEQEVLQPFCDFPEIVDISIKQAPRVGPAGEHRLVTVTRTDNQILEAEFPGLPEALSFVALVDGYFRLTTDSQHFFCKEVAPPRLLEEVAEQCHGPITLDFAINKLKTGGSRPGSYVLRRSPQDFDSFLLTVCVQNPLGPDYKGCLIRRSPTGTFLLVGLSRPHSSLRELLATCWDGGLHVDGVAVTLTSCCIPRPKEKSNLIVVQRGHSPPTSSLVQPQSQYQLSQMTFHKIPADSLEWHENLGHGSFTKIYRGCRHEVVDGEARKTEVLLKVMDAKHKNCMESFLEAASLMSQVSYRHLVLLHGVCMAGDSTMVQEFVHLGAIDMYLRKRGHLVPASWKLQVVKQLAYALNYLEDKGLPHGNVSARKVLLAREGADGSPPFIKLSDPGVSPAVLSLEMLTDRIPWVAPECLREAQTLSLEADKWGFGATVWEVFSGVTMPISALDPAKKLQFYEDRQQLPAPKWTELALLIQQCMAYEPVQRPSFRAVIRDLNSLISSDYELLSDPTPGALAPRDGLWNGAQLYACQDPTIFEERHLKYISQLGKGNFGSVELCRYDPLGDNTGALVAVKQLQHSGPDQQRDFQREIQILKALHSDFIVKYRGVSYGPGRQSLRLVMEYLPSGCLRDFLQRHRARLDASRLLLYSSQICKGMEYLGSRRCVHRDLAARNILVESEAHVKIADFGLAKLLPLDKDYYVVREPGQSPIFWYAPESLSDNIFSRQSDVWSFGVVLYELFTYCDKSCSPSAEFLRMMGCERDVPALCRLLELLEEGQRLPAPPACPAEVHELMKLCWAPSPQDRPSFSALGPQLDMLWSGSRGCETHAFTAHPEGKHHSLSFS
Outline: as §1

[6] = IL-2 stimulated pSTAT5 in Tall-1 T cells
[7] = selectivity: difference of pKi JAK3 and pKi JAK1
[8] = TALL-1, IL-2 stimulated pSTAT5 in Tall-1 T cells
[9] = IL-2 stimulated pSTAT5, Tall-1 T cells
[10] = selectivity JAK3 over JAK1, difference of pKi
[11] = TALL-1, IL-2 stimulated pSTAT5, Tall-1 T cells

T1 sequence (P23458 whole entry): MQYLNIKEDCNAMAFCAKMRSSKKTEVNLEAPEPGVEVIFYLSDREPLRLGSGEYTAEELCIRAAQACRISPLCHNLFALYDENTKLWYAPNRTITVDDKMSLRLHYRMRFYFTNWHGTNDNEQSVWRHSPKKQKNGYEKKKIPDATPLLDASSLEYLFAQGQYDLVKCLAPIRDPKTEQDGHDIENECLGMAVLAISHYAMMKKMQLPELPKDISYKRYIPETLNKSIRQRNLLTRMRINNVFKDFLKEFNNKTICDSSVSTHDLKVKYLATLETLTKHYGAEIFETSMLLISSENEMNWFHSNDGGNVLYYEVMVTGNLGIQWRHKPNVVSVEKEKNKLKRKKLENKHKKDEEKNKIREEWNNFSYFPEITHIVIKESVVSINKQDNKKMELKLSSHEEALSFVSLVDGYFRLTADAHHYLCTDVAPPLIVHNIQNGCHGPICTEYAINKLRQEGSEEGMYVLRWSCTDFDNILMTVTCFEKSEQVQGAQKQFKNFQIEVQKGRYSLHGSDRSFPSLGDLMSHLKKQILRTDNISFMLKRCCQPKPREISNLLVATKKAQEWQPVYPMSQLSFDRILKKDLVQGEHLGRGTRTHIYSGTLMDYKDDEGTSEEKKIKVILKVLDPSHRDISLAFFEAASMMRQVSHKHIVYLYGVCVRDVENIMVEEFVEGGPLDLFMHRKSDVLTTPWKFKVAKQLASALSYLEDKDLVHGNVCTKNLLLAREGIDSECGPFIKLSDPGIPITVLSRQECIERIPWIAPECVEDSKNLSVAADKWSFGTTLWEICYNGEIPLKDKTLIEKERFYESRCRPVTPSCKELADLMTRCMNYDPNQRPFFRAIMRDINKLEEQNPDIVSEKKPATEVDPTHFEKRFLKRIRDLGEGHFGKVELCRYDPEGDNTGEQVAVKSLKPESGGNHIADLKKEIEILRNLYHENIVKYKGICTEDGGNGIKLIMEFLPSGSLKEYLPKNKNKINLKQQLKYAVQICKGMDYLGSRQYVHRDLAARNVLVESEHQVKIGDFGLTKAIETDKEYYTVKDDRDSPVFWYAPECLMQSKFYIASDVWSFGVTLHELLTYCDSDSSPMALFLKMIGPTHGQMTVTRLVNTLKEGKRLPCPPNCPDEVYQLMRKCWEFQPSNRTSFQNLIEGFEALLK

SMILES	JAK 1 (pKi) [1]	JAK 2 (pKi) [2]	Tyk 2 (pKi) [3]	Tall-1 (pIC50) [4, 6]	JAK 3 (pKi) [5]	JAK3 (pKi)-JAK1 (pKi) [5, 7]	Ki [1]	Ki [2]	Ki [3]	IC50 [4, 8]	Ki [5]	Tall-1 (pIC50) [4, 9]	JAK3 (pKi)-JAK1 (pKi) [5, 10]	IC50 [4, 11]
CN(C)C/C=C/C(=O)N1CC(F)(COc2nc(-c3ccc(O)cc3)cc3[nH]ncc23)C1 [Compound 3-44]	D (a pKi value between 7 and 8 (Ki between 100 nM and 10 nM))	D (a pKi value between 7 and 8 (Ki between 100 nM and 10 nM))	E (a pKi value of 7 or below (Ki of 100 nM or above))	A (a pIC50 value≥7.5 (IC50≤32 nM))	B (a pKi value between 9 and 10 (Ki between 1 nM and 0.1 nM))	B (a value of 2.3 to 3)	–	–	–	–	–	–	–	–
C=CC(=O)N1CC[C@H](Oc2cc(-c3ccc(O)c(F)c3)cc3[nH]nc(SC)c23)C1 [Compound 1-40]	–	–	–	–	–	B (a value of 2.3 to 3)	> 100 nM	> 100 nM	> 100 nM	31.6 to 200 nM	0.1 to 1 nM	–	–	–
C=CC(=O)N1CC(C)(Oc2cc(-c3ccc(O)cc3)cc3[nH]ncc23)C1 [Compound 5-12]	E (a pKi value of 7 or below (Ki of 100 nM or above))	E (a pKi value of 7 or below (Ki of 100 nM or above))	E (a pKi value of 7 or below (Ki of 100 nM or above))	B (a pIC50 value between 6.7 (included) and 7.5 (IC50 between 200 nM and 32 nM))	B (a pKi value between 9 and 10 (Ki between 1 nM and 0.1 nM))	A (a value of 3 or above)	–	–	–	–	–	–	–	–
C=CC(=O)N1CCC(COc2nc(-c3ccc(O)cc3)nc3[nH]ncc23)CC1 [Compound 14-12]	E (a pKi value of 7 or below (Ki of 100 nM or above))	E (a pKi value of 7 or below (Ki of 100 nM or above))	E (a pKi value of 7 or below (Ki of 100 nM or above))	–	B (a pKi value between 9 and 10 (Ki between 1 nM and 0.1 nM))	–	–	–	–	–	–	C (a pIC50 value between 6 and 6.7 (IC50 between 1 μM and 200 nM))	A (a value of 3 or above)	–
C=CC(=O)N1CCC(COc2cc(-c3ccc(O)cc3)nc3[nH]ncc23)CC1 [Compound 14-2]	E (a pKi value of 7 or below (Ki of 100 nM or above))	E (a pKi value of 7 or below (Ki of 100 nM or above))	E (a pKi value of 7 or below (Ki of 100 nM or above))	–	A (a pKi value≥10 (Ki≤0.1 nM))	–	–	–	–	–	–	B (a pIC50 value between 6.7 (included) and 7.5 (IC50 between 200 nM and 32 nM))	A (a value of 3 or above)	–
C=CC(=O)N1CCCC(Oc2nc(-c3ccc(O)cc3)cc3[nH]ncc23)C1 (stereo not drawn) [Compound 8-7]	E (a pKi value of 7 or below (Ki of 100 nM or above))	D (a pKi value between 7 and 8 (Ki between 100 nM and 10 nM))	E (a pKi value of 7 or below (Ki of 100 nM or above))	–	B (a pKi value between 9 and 10 (Ki between 1 nM and 0.1 nM))	–	–	–	–	–	–	B (a pIC50 value between 6.7 (included) and 7.5 (IC50 between 200 nM and 32 nM))	A (a value of 3 or above)	–
CCC1(COc2nc(-c3ccc(O)c(Cl)c3)cc3[nH]ncc23)CN(C(=O)/C=C/CN(C)C)C1 [Compound 3-99]	E (a pKi value of 7 or below (Ki of 100 nM or above))	E (a pKi value of 7 or below (Ki of 100 nM or above))	E (a pKi value of 7 or below (Ki of 100 nM or above))	A (a pIC50 value≥7.5 (IC50≤32 nM))	A (a pKi value≥10 (Ki≤0.1 nM))	A (a value of 3 or above)	–	–	–	–	–	–	–	–
C=CC(=O)N1CC(C#N)(COc2cc(-c3ccc(O)c(F)c3)cc3[nH]ncc23)C1 [Compound 3-23]	E (a pKi value of 7 or below (Ki of 100 nM or above))	D (a pKi value between 7 and 8 (Ki between 100 nM and 10 nM))	E (a pKi value of 7 or below (Ki of 100 nM or above))	B (a pIC50 value between 6.7 (included) and 7.5 (IC50 between 200 nM and 32 nM))	A (a pKi value≥10 (Ki≤0.1 nM))	A (a value of 3 or above)	–	–	–	–	–	–	–	–
C=CC(=O)N1CC(Nc2cc(-c3ccc(O)cc3)cc3[nH]ncc23)C1 [Compound 5-7]	E (a pKi value of 7 or below (Ki of 100 nM or above))	D (a pKi value between 7 and 8 (Ki between 100 nM and 10 nM))	E (a pKi value of 7 or below (Ki of 100 nM or above))	B (a pIC50 value between 6.7 (included) and 7.5 (IC50 between 200 nM and 32 nM))	A (a pKi value≥10 (Ki≤0.1 nM))	A (a value of 3 or above)	–	–	–	–	–	–	–	–
C=C(CN(C)C)C(=O)N1CC(COc2nc(-c3ccc(O)c(Cl)c3)nc3[nH]ncc23)C1 [Compound 3-60]	E (a pKi value of 7 or below (Ki of 100 nM or above))	E (a pKi value of 7 or below (Ki of 100 nM or above))	E (a pKi value of 7 or below (Ki of 100 nM or above))	B (a pIC50 value between 6.7 (included) and 7.5 (IC50 between 200 nM and 32 nM))	A (a pKi value≥10 (Ki≤0.1 nM))	A (a value of 3 or above)	–	–	–	–	–	–	–	–
Cc1n[nH]c2cc(-c3ccc(O)c(Cl)c3)cc(OCC3CN(C(=O)/C=C/CN(C)C)C3)c12 [Compound 18-1]	–	–	–	–	–	–	> 100 nM	10 to 100 nM	> 100 nM	–	0.1 to 1 nM	–	B (a value of 2.3 to 3)	< 31.6 nM
C=CC(=O)N1CCC(N(C)c2cc(-c3ccc(O)cc3)cc3[nH]ncc23)CC1 [Compound 7-3]	E (a pKi value of 7 or below (Ki of 100 nM or above))	E (a pKi value of 7 or below (Ki of 100 nM or above))	E (a pKi value of 7 or below (Ki of 100 nM or above))	–	B (a pKi value between 9 and 10 (Ki between 1 nM and 0.1 nM))	–	–	–	–	–	–	B (a pIC50 value between 6.7 (included) and 7.5 (IC50 between 200 nM and 32 nM))	A (a value of 3 or above)	–
CN(C)C/C=C/C(=O)N1CC[C@H](COc2cc(-c3ccc(O)c(Cl)c3)cc3[nH]ncc23)C1 [Compound 2-2]	E (a pKi value of 7 or below (Ki of 100 nM or above))	D (a pKi value between 7 and 8 (Ki between 100 nM and 10 nM))	E (a pKi value of 7 or below (Ki of 100 nM or above))	B (a pIC50 value between 6.7 (included) and 7.5 (IC50 between 200 nM and 32 nM))	B (a pKi value between 9 and 10 (Ki between 1 nM and 0.1 nM))	A (a value of 3 or above)	–	–	–	–	–	–	–	–
CN(C)C/C=C/C(=O)N1CCC(Oc2cc(-c3ccc(O)c(F)c3)cc3[nH]ncc23)CC1 [Compound 6-20]	–	–	–	–	–	–	10 to 100 nM	1 to 10 nM	> 100 nM	–	0.1 to 1 nM	–	B (a value of 2.3 to 3)	31.6 to 200 nM
C=CC(=O)N1CC[C@H](Oc2nc(-c3ccc(O)c(F)c3)cc3[nH]ncc23)C1 [Compound 1-27]	–	–	–	–	–	A (a value of 3 or above)	> 100 nM	10 to 100 nM	> 100 nM	31.6 to 200 nM	< 0.1 nM	–	–	–
